Test results: patent US10927123B2, “Modulators of the beta-3 adrenergic receptor useful for the treatment or prevention of disorders related thereto” (Arena Pharmaceuticals, Inc., priority 2016, dated 2021)

Target: Beta-3 Adrenergic Receptor (Homo sapiens (Human), UniProt P13945)
Test: HTRF cAMP antagonist assay (IC50 determination)
Type: cell-based
Details: CHO-K1 cells stably expressing recombinant receptor; antagonism of isoproterenol at EC90; cAMP readout
Summary of the method: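 CHO-K1 cells stably expressing receptor, 1500 cells/well, preincubated briefly with 10-point 5-fold compound series (top final typically 10 or 100 μM) in PBS with 1 mM IBMX, then challenged with isoproterenol at EC90 for 1 h at room temperature. cAMP read by HTRF against on-plate standard curve; IC50 from dose-response.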

Chain of Beta-3 Adrenergic Receptor (P13945 whole entry, species assumed): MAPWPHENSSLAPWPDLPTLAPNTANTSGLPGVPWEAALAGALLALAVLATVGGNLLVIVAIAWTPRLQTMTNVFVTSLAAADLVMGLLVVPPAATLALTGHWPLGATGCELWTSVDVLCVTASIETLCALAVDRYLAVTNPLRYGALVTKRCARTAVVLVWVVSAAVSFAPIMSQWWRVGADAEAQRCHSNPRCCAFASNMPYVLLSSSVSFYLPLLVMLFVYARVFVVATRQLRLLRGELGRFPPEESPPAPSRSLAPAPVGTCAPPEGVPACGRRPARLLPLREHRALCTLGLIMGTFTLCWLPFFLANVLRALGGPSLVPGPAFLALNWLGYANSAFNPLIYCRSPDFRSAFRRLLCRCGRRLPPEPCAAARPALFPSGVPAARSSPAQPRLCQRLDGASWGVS

Row | SMILES | IC50 [nM]
1 | CN1CCOc2ncc(S(=O)(=O)N3CCC4(CC3)C[C@@H](NC[C@H](O)COc3cccc(CS(C)(=O)=O)c3)CO4)cc21 [Compound 104, (S)-1-((R)-8-(1-methyl-2,3-dihydro-1H-pyrido[2,3-b][1,4]oxazin-7-ylsulfonyl)-1-oxa-8-azaspiro[4.5]decan-3-ylamino)-3-(3-(methylsulfonylmethyl)phenoxy)propan-2-ol] | 36.5
2 | C[C@H]1CN(C)c2cc(S(=O)(=O)N3CCC4(CC3)C[C@@H](NC[C@H](O)COc3cccc(S(=O)(=O)CC(N)=O)c3)CO4)cnc2O1 [Compound 278, 2-(3-((S)-3-((R)-8-((S)-1,3-dimethyl-2,3-dihydro-1H-pyrido[2,3-b][1,4]oxazin-7-ylsulfonyl)-1-oxa-8-azaspiro[4.5]decan-3-ylamino)-2-hydroxypropoxy)phenylsulfonyl)acetamide] | 586
3 | Cc1c(S(=O)(=O)N2CCC3(CC2)C[C@@H](NC[C@H](O)COc2cccc(S(=O)(=O)C4(CO)CC4)c2)CO3)cnc2c1N(C)CCO2 [Compound 260, (S)-1-((R)-8-(1,8-dimethyl-2,3-dihydro-1H-pyrido[2,3-b][1,4]oxazin-7-ylsulfonyl)-1-oxa-8-azaspiro[4.5]decan-3-ylamino)-3-(3-(1-(hydroxymethyl)cyclopropylsulfonyl)phenoxy)propan-2-ol] | 178
4 | CCOc1ccc(-c2ccc(CCNC(C)=O)cc2)cc1S(=O)(=O)N1CCC2(CC1)C[C@@H](NC[C@H](O)COc1cccc(S(=O)(=O)C3(CO)CC3)c1)CO2 [Compound 175, N-(2-(4′-ethoxy-3′-((R)-3-((S)-2-hydroxy-3-(3-(1-(hydroxymethyl)cyclopropylsulfonyl)phenoxy)propylamino)-1-oxa-8-azaspiro[4.5]decan-8-ylsulfonyl)biphenyl-4-yl)ethyl)acetamide] | 716
5 | CC(C)CS(=O)(=O)c1cccc(OC[C@@H](O)CNC2COC3(CCN(S(=O)(=O)c4ccc5ccccc5c4)CC3)C2)c1 (stereo partly drawn) [Compound 10, (2S)-1-(3-(isobutylsulfonyl)phenoxy)-3-(8-(naphthalen-2-ylsulfonyl)-1-oxa-8-azaspiro[4.5]decan-3-ylamino)propan-2-ol] | 25.1
6 | CCS(=O)(=O)c1cccc(OC[C@@H](O)CNC2COC3(CCN(S(=O)(=O)c4ccc5ccccc5c4)CC3)C2)c1 (stereo partly drawn) [Compound 15, (2S)-1-(3-(ethylsulfonyl)phenoxy)-3-(8-(naphthalen-2-ylsulfonyl)-1-oxa-8-azaspiro[4.5]decan-3-ylamino)propan-2-ol] | 5.7
7 | CCOc1ccc(-c2ccc(CN)cc2)cc1S(=O)(=O)N1CCC2(CC1)C[C@H](NC[C@H](O)COc1cccc(S(=O)(=O)C(F)(F)CO)c1)CO2 [Compound 168, (S)-1-((S)-8-(4′-(aminomethyl)-4-ethoxybiphenyl-3-ylsulfonyl)-1-oxa-8-azaspiro[4.5]decan-3-ylamino)-3-(3-(1,1-difluoro-2-hydroxyethylsulfonyl)phenoxy)propan-2-ol] | 15.4
8 | COc1c(-c2ccc(CN)cc2)cccc1S(=O)(=O)N1CCC2(CC1)C[C@H](NC[C@H](O)COc1cccc(S(=O)(=O)C3CC3)c1)CO2 [Compound 228, (S)-1-((S)-8-(4′-(aminomethyl)-2-methoxybiphenyl-3-ylsulfonyl)-1-oxa-8-azaspiro[4.5]decan-3-ylamino)-3-(3-(cyclopropylsulfonyl)phenoxy)propan-2-ol] | 29.1
9 | NCCc1ccc(-c2cccc(S(=O)(=O)N3CCC4(CC3)C[C@H](NC[C@H](O)COc3cccc(S(=O)(=O)C5(CO)CC5)c3)CO4)c2)cc1 [Compound 211, (S)-1-((S)-8-(4′-(2-aminoethyl)biphenyl-3-ylsulfonyl)-1-oxa-8-azaspiro[4.5]decan-3-ylamino)-3-(3-(1-(hydroxymethyl)cyclopropylsulfonyl)phenoxy)propan-2-ol] | 26.2
10 | CS(=O)(=O)c1cccc(OC[C@@H](O)CNC2COC3(CCN(S(=O)(=O)c4ccc5c(c4)CCCO5)CC3)C2)c1 (stereo partly drawn) [Compound 28, (2S)-1-(8-(chroman-6-ylsulfonyl)-1-oxa-8-azaspiro[4.5]decan-3-ylamino)-3-(3-(methylsulfonyl)phenoxy)propan-2-ol] | 18.5
11 | CS(=O)(=O)c1cccc(OC[C@@H](O)CNC2COC3(CCN(C(=O)c4ccc5cc[nH]c5c4)CC3)C2)c1 (stereo partly drawn) [Compound 68, (3-((S)-2-hydroxy-3-(3-(methylsulfonyl)phenoxy)propylamino)-1-oxa-8-azaspiro[4.5]decan-8-yl)(1H-indol-6-yl)methanone] | 494
12 | CS(=O)(=O)c1cccc(OC[C@@H](O)CNC2COC3(CCN(S(=O)(=O)c4ccc5occc5c4)CC3)C2)c1 (stereo partly drawn) [Compound 61, (2S)-1-(8-(benzofuran-5-ylsulfonyl)-1-oxa-8-azaspiro[4.5]decan-3-ylamino)-3-(3-(methylsulfonyl)phenoxy)propan-2-ol] | 29.8
13 | O=S(=O)(CCO)c1cccc(OC[C@@H](O)CN[C@H]2COC3(CCN(S(=O)(=O)c4ccc5ccccc5c4)CC3)C2)c1 [Compound 35, (S)-1-(3-(2-hydroxyethylsulfonyl)phenoxy)-3-((R)-8-(naphthalen-2-ylsulfonyl)-1-oxa-8-azaspiro[4.5]decan-3-ylamino)propan-2-ol] | 20.3
14 | CC(C)S(=O)(=O)c1cccc(OC[C@@H](O)CN[C@H]2COC3(CCN(S(=O)(=O)c4cnc5ccccc5c4)CC3)C2)c1 [Compound 119, (S)-1-(3-(isopropylsulfonyl)phenoxy)-3-((R)-8-(quinolin-3-ylsulfonyl)-1-oxa-8-azaspiro[4.5]decan-3-ylamino)propan-2-ol] | 11.6
15 | CCn1cc(S(=O)(=O)N2CCC3(CC2)C[C@@H](NC[C@@H](O)COc2cccc(S(C)(=O)=O)c2)CO3)c(=O)c2ccccc21 [Compound 337, 1-ethyl-3-((R)-3-((R)-2-hydroxy-3-(3-(methylsulfonyl)phenoxy)propylamino)-1-oxa-8-azaspiro[4.5]decan-8-ylsulfonyl)quinolin-4(1H)-one] | 1690
16 | NCc1ccc(-c2cc(S(=O)(=O)N3CCC4(CC3)C[C@H](NC[C@H](O)COc3cccc(S(=O)(=O)C5(CO)CC5)c3)CO4)ccc2F)cc1 [Compound 218, (S)-1-((S)-8-(4′-(aminomethyl)-6-fluorobiphenyl-3-ylsulfonyl)-1-oxa-8-azaspiro[4.5]decan-3-ylamino)-3-(3-(1-(hydroxymethyl)cyclopropylsulfonyl)phenoxy)propan-2-ol] | 29.3
17 | CS(=O)(=O)c1cccc(OC[C@@H](O)CNC2COC3(CCN(S(=O)(=O)c4ccc5[nH]cnc5c4)CC3)C2)c1 (stereo partly drawn) [Compound 76, (2S)-1-(8-(1H-benzo[d]imidazol-5-ylsulfonyl)-1-oxa-8-azaspiro[4.5]decan-3-ylamino)-3-(3-(methylsulfonyl)phenoxy)propan-2-ol] | 35.9
18 | O=S(=O)(CCO)c1cccc(OC[C@@H](O)CN[C@H]2COC3(CCN(S(=O)(=O)c4cccc(-c5ccncc5)c4)CC3)C2)c1 [Compound 96, (S)-1-(3-(2-hydroxyethylsulfonyl)phenoxy)-3-((R)-8-(3-(pyridin-4-yl)phenylsulfonyl)-1-oxa-8-azaspiro[4.5]decan-3-ylamino)propan-2-ol] | 411
19 | O=C1Cc2cc(S(=O)(=O)N3CCC4(CC3)C[C@@H](NC[C@H](O)COc3cccc(S(=O)(=O)C5CC5)c3)CO4)cnc2N1 [Compound 313, 5-((R)-3-((S)-3-(3-(cyclopropylsulfonyl)phenoxy)-2-hydroxypropylamino)-1-oxa-8-azaspiro[4.5]decan-8-ylsulfonyl)-1H-pyrrolo[2,3-b]pyridin-2(3H)-one] | 141
20 | CC(C)S(=O)(=O)c1cccc(OC[C@@H](O)CN[C@H]2COC3(CCN(S(=O)(=O)c4cnc5c(F)cccc5c4O)CC3)C2)c1 [Compound 323, 8-fluoro-3-((R)-3-((S)-2-hydroxy-3-(3-(isopropylsulfonyl)phenoxy)propylamino)-1-oxa-8-azaspiro[4.5]decan-8-ylsulfonyl)quinolin-4-ol] | 49.6
21 | O=S(=O)(c1cccc(OC[C@@H](O)CN[C@H]2COC3(CCN(S(=O)(=O)c4cnc5ccccc5c4)CC3)C2)c1)C1CC(O)C1 (stereo partly drawn) [Compound 146, 3-(3-((S)-2-hydroxy-3-((R)-8-(quinolin-3-ylsulfonyl)-1-oxa-8-azaspiro[4.5]decan-3-ylamino)propoxy)phenylsulfonyl)cyclobutanol] | 104
22 | NC1(c2ccc(-c3cc(S(=O)(=O)N4CCC5(CC4)C[C@@H](NC[C@H](O)COc4cccc(S(=O)(=O)C6(CO)CC6)c4)CO5)ccc3F)cc2)CC1 [Compound 217, (S)-1-((R)-8-(4′-(1-aminocyclopropyl)-6-fluorobiphenyl-3-ylsulfonyl)-1-oxa-8-azaspiro[4.5]decan-3-ylamino)-3-(3-(1-(hydroxymethyl)cyclopropylsulfonyl)phenoxy)propan-2-ol] | 28.4
23 | COCS(=O)(=O)c1cccc(OC[C@@H](O)CN[C@H]2COC3(CCN(S(=O)(=O)c4cnc5ccccc5c4)CC3)C2)c1 [Compound 141, (S)-1-(3-(methoxymethylsulfonyl)phenoxy)-3-((R)-8-(quinolin-3-ylsulfonyl)-1-oxa-8-azaspiro[4.5]decan-3-ylamino)propan-2-ol] | 11.6
24 | Cn1cnc2ccc(S(=O)(=O)N3CCC4(CC3)C[C@@H](NC[C@H](O)COc3cccc(S(=O)(=O)C5(CO)CC5)c3)CO4)nc21 [Compound 287, (S)-1-(3-(1-(hydroxymethyl)cyclopropylsulfonyl)phenoxy)-3-((R)-8-(3-methyl-3H-imidazo[4,5-b]pyridin-5-ylsulfonyl)-1-oxa-8-azaspiro[4.5]decan-3-ylamino)propan-2-ol] | 151
25 | NCCCNCc1ccc(-c2cccc(S(=O)(=O)N3CCC4(CC3)C[C@@H](NC[C@H](O)COc3cccc(S(=O)(=O)C5(CO)CC5)c3)CO4)c2)cc1 [Compound 271, (S)-1-((R)-8-(4′-((3-aminopropylamino)methyl)biphenyl-3-ylsulfonyl)-1-oxa-8-azaspiro[4.5]decan-3-ylamino)-3-(3-(1-(hydroxymethyl)cyclopropylsulfonyl)phenoxy)propan-2-ol] | 206
